What all share (type): cell-based
Experiment [1] relates to human liver cancer cells (HepG2). Briefly: MTT antiproliferative assay, HepG2. Particulars: Homo sapiens, HepG2, 72 h. The method, then:
(§1) Human lung cancer cell (A549,), human umbilical vein endothelial cells (HUVECs,), human colon cancer cell lines (HCT-15), human breast cancer cells (MCF-7), human liver cancer cells (HepG2), human pancreatic cancer cells (BxPC-3), and human hepatic cell line (L-02) were obtained from the Sichuan University. A549, HUVECs, and L-02 were cultured in DMEM medium (high glucose, HyClone, GE Healthcare, Sydney, Australia). Human colon cancer cell lines HCT-15, human pancreatic cancer cells […] BxPC-3 were cultured in RPMI-1640. Human breast cancer cells MCF-7 and human liver cancer cells HepG2 were cultured in MEM medium. All the mediums, including 10% fetal bovine serum (FBS, HyClone, GE Healthcare, Sydney, Australia) and 1% ampicillin/streptomycin, were used to culture the above cells at 37 °C in a humidified atmosphere (5% CO2 and 95% air).
(§2) The antiproliferative activity of the title compounds was determined using the MTT (3-(4,5-dimethylthiazol-2-yl)-2,5-diphenyltetrazolium bromide, Sigma-Aldrich, Saint Louis, MO, USA) assay on different cells. Cells lines were seeded into 96-well plates at a density of 2000 to 6000 cells/well. DMSO was used to dissolve the test compounds, and TET was used as a positive control. After 24 h, the test compounds were added at different concentrations (0.625, 1.25, 2.5, 5, 10, and 20 μM) and incubated at 37 °C for 72 h. MTT was added to each well at a final concentration of 0.5 mg/mL and incubated at 37 °C for 4 h. Then, 150 μL of DMSO was added to each well to dissolve the formazan crystals. The absorbance was measured at 570 nm by a microplate reader (ELX800UV, Bio-Tek, Windoski, VT, USA). All measurements were repeated at least three times under the same conditions. Graphpad Prism 8.0 was used to calculate the IC50 values.

Experiment [2] has as its system human lung cancer cells (A549). Briefly: MTT antiproliferative assay, A549. Particulars: Homo sapiens, A549, 72 h. The protocol:
as §1, §2
A general note: Tetrazolium dyes change colour on reduction, which living cells bring about.

Experiment [3] deals with human umbilical vein endothelial cells (HUVEC). Briefly: MTT antiproliferative assay, HUVEC. To be noted: 72 h. The protocol:
as §1, §2

Experiment [4] has as its system human normal hepatocyte cells (L-02). Put plainly: MTT toxicity assay, normal hepatocytes L-02. To be noted: 72 h, normal hepatocyte L-02 (toxicity), read-out: Antiproliferative Activity (IC50/μM) L-02. The method, then: as §1, §2
The test system of experiment [5] is human pancreatic cancer cells (BxPC-3). Put plainly: MTT antiproliferative assay, BxPC-3. Particulars: Homo sapiens, BXPC-3, 72 h. The method, then: as §1, §2
Experiment [6] relates to human colon cancer cells (HCT-15). Briefly: MTT antiproliferative assay, HCT-15. Particulars: for IC50: Homo sapiens, MTT, 72 h, HCT-15. The method, then:
as §1, §2

For experiment [7], the system named is human breast cancer cells (MCF-7). Briefly: MTT antiproliferative assay, MCF-7. Particulars: Homo sapiens, MCF7, 72 h. The method, then:
as §1, §2

Consider 16 compounds from article PMC9268013, “Design, Synthesis, and Biological Evaluation of N14-Amino Acid-Substituted Tetrandrine Derivatives as Potential Antitumor Agents against Human Colorectal Cancer” (Molecules, 2022).

Consider `COc1cc(NC(=O)[C@H](N)Cc2ccccc2)c2cc1Oc1ccc(cc1)C[C@H]1c3cc(c(OC)cc3CCN1C)Oc1c(OC)c(OC)cc3c1[C@H](C2)N(C)CC3` [Compound 19], for which the IC50 in experiment [1] came to 1.71 ± 0.46 µM; in experiment [2], 2.67 ± 0.14 µM; in experiment [3], 1.92 ± 0.17 µM; in experiment [4] it was 9.02 ± 0.26 µM; in experiment [5], 1.75 ± 0.13 µM; in experiment [6], 3.39 ± 0.07 µM. Also, the IC50 in experiment [7] is 3.31 ± 0.01 µM.

For the compound `COc1cc(NC(=O)[C@H](CO)NC(=O)OC(C)(C)C)c2cc1Oc1ccc(cc1)C[C@H]1c3cc(c(OC)cc3CCN1C)Oc1c(OC)c(OC)cc3c1[C@H](C2)N(C)CC3` [Compound 8, 14-N-(Boc-L-serine)-tetrandrine], the IC50 in experiment [1] was 3.76 ± 1.34 µM; in experiment [2], 7.45 ± 0.32 µM; in experiment [3] it was 3.96 ± 0.36 µM; in experiment [4] it was over 20 µM; in experiment [5] it was 3.55 ± 0.32 µM; in experiment [6] it was 5.87 ± 0.3 µM. The same compound returned an IC50 in experiment [7] of 5.84 ± 0.25 µM.

Take `COc1cc(NC(=O)[C@@H](N)Cc2ccc(O)cc2)c2cc1Oc1ccc(cc1)C[C@H]1c3cc(c(OC)cc3CCN1C)Oc1c(OC)c(OC)cc3c1[C@H](C2)N(C)CC3` [Compound 20, 14-N-(L-tyrosine)-tetrandrine]: the IC50 in experiment [1] came to 1.44 ± 0.18 µM; in experiment [2] it was 4.12 ± 0.27 µM; in experiment [3], 1.91 ± 0.09 µM; in experiment [4] it was 10 ± 1.28 µM; in experiment [5], 2.36 ± 0.15 µM; in experiment [6] it was 3.33 ± 0.08 µM. The compound further yielded an IC50 in experiment [7] of 3.7 ± 0.91 µM.

For `COc1cc(NC(=O)[C@H](C)NC(=O)OC(C)(C)C)c2cc1Oc1ccc(cc1)C[C@H]1c3cc(c(OC)cc3CCN1C)Oc1c(OC)c(OC)cc3c1[C@H](C2)N(C)CC3` [Compound 4], the IC50 in experiment [1] was 3.9 ± 0.62 µM; in experiment [2], 7.44 ± 1.11 µM; in experiment [3], 4.01 ± 0.41 µM; in experiment [4], over 20 µM; in experiment [5], 4.74 ± 0.37 µM; in experiment [6], 3.28 ± 0.32 µM. For the same compound, the IC50 in experiment [7] was found to be 5.78 ± 0.35 µM.

With `COc1cc(NC(=O)[C@H](Cc2ccc(O)cc2)NC(=O)OC(C)(C)C)c2cc1Oc1ccc(cc1)C[C@H]1c3cc(c(OC)cc3CCN1C)Oc1c(OC)c(OC)cc3c1[C@H](C2)N(C)CC3` [Compound 11, 14-N-(Boc-L-tyrosine)-tetrandrine], the IC50 in experiment [1] amounted to 2.81 ± 0.35 µM; in experiment [2] it was 6.26 ± 0.41 µM; in experiment [3] it was 2.16 ± 0.32 µM; in experiment [4], 11.8 ± 0.61 µM; in experiment [5], 3.58 ± 0.15 µM; in experiment [6] it was 3.56 ± 0.27 µM. In experiment [7], the IC50 came out at 5.03 ± 0.04 µM.

`COc1cc(NC(=O)[C@@H](Cc2ccccc2)NC(=O)OC(C)(C)C)c2cc1Oc1ccc(cc1)C[C@H]1c3cc(c(OC)cc3CCN1C)Oc1c(OC)c(OC)cc3c1[C@H](C2)N(C)CC3` [Compound 10]: the IC50 in experiment [1] amounted to 1.54 ± 0.02 µM; in experiment [2], 1.96 ± 0.24 µM; in experiment [3], 1.8 ± 0.02 µM; in experiment [4] it was 15.54 ± 0.11 µM; in experiment [5], 2.31 ± 0.08 µM; in experiment [6], 0.91 ± 0.05 µM. The compound also had an IC50 in experiment [7] of 2.59 ± 0.11 µM. Also, the “Improvement of antiproliferative activity compared with TET” value in experiment [6] (HCT-15 cells, vs TET (IC50 = 6.12 μM)) is listed as “more than 6 fold”.

For the compound `COc1cc(NC(=O)[C@@H](N)[C@@H](C)O)c2cc1Oc1ccc(cc1)C[C@H]1c3cc(c(OC)cc3CCN1C)Oc1c(OC)c(OC)cc3c1[C@H](C2)N(C)CC3` [Compound 18, 14-N-(L-threonine)-tetrandrine], the IC50 in experiment [1] is 3.57 ± 0.67 µM; in experiment [2], 6.81 ± 1.1 µM; in experiment [3], 3.25 ± 0.69 µM; in experiment [4] it was over 20 µM; in experiment [5], 5.6 ± 0.38 µM; in experiment [6] it was 5.28 ± 0.37 µM. For the same compound, the IC50 in experiment [7] came to 10.2 ± 0.4 µM.

On to `COc1cc(NC(=O)[C@@H](N)CO)c2cc1Oc1ccc(cc1)C[C@H]1c3cc(c(OC)cc3CCN1C)Oc1c(OC)c(OC)cc3c1[C@H](C2)N(C)CC3` [Compound 17, 14-N-(L-serine)-tetrandrine], for which the IC50 in experiment [1] is 3.13 ± 0.7 µM; in experiment [2], 7.44 ± 1.02 µM; in experiment [3], 2.88 ± 0.26 µM; in experiment [4], over 20 µM; in experiment [5], 3.67 ± 0.19 µM; in experiment [6], 3.94 ± 0.37 µM. Besides, the IC50 in experiment [7] is 7.53 ± 0.11 µM.

With `COc1cc(NC(=O)CN)c2cc1Oc1ccc(cc1)C[C@H]1c3cc(c(OC)cc3CCN1C)Oc1c(OC)c(OC)cc3c1[C@H](C2)N(C)CC3` [Compound 12, 14-N-(L-glycine)-tetrandrine], the IC50 is 3.19 ± 0.76 µM in experiment [1]; 4.94 ± 0.45 µM in experiment [2]; 3.19 ± 0.61 µM in experiment [3]; over 20 µM in experiment [4]; 3.98 ± 0.16 µM in experiment [5]; 3.54 ± 0.36 µM in experiment [6]. The same compound registered an IC50 in experiment [7] of 6.91 ± 0.66 µM.

`COc1cc(NC(=O)[C@@H](N)C(C)C)c2cc1Oc1ccc(cc1)C[C@H]1c3cc(c(OC)cc3CCN1C)Oc1c(OC)c(OC)cc3c1[C@H](C2)N(C)CC3` [Compound 14, 14-N-(L-valine)-tetrandrine]: the IC50 in experiment [1] was 3.26 ± 0.05 µM; in experiment [2] it was 6.11 ± 0.91 µM; in experiment [3], 2.48 ± 0.15 µM; in experiment [4] it was 14.5 ± 0.37 µM; in experiment [5] it was 4.95 ± 0.29 µM; in experiment [6], 4.02 ± 0.15 µM. The compound also returned an IC50 in experiment [7] of 7.96 ± 1.08 µM.

For `COc1cc(NC(=O)[C@@H](NC(=O)OC(C)(C)C)C(C)C)c2cc1Oc1ccc(cc1)C[C@H]1c3cc(c(OC)cc3CCN1C)Oc1c(OC)c(OC)cc3c1[C@H](C2)N(C)CC3` [Compound 5], the IC50 was 3.54 ± 0.3 µM in experiment [1]; 7.24 ± 0.41 µM in experiment [2]; 3.04 ± 0.34 µM in experiment [3]; over 20 µM in experiment [4]; 4.63 ± 0.09 µM in experiment [5]; 4.31 ± 0.09 µM in experiment [6]. The IC50 in experiment [7] worked out at 7.4 ± 0.31 µM.

As to `COc1cc(NC(=O)[C@H]2CCCN2C(=O)OC(C)(C)C)c2cc1Oc1ccc(cc1)C[C@H]1c3cc(c(OC)cc3CCN1C)Oc1c(OC)c(OC)cc3c1[C@H](C2)N(C)CC3` [Compound 7, 14-N-(Boc-L-proline)-tetrandrine], the IC50 amounted to 3.5 ± 1.37 µM in experiment [1]; 6.4 ± 0.36 µM in experiment [2]; 3.49 ± 0.31 µM in experiment [3]; 17.5 ± 0.21 µM in experiment [4]; 3.1 ± 0.26 µM in experiment [5]; 1.15 ± 0.17 µM in experiment [6]. The IC50 in experiment [7] amounted to 5.71 ± 0.29 µM.

For `COc1cc(NC(=O)[C@H](C)N)c2cc1Oc1ccc(cc1)C[C@H]1c3cc(c(OC)cc3CCN1C)Oc1c(OC)c(OC)cc3c1[C@H](C2)N(C)CC3` [Compound 13], the IC50 in experiment [1] is 3.27 ± 1 µM; in experiment [2] it was 8.12 ± 0.43 µM; in experiment [3], 2.2 ± 0.37 µM; in experiment [4] it was over 20 µM; in experiment [5] it was 6.95 ± 0.57 µM; in experiment [6] it was 4.69 ± 0.47 µM. Moreover, in experiment [7], the IC50 is 11.1 ± 0.26 µM.

As to `COc1cc(NC(=O)[C@H](CC(C)C)NC(=O)OC(C)(C)C)c2cc1Oc1ccc(cc1)C[C@H]1c3cc(c(OC)cc3CCN1C)Oc1c(OC)c(OC)cc3c1[C@H](C2)N(C)CC3` [Compound 6], the IC50 stood at 3.11 ± 0.68 µM in experiment [1]; 5.54 ± 0.16 µM in experiment [2]; 2.09 ± 0.19 µM in experiment [3]; 13.58 ± 0.13 µM in experiment [4]; 6.39 ± 0.2 µM in experiment [5]; 3.89 ± 0.47 µM in experiment [6]. For the same compound, the IC50 in experiment [7] is 4.99 ± 0.66 µM.

With `COc1cc(NC(=O)[C@@H](N)CC(C)C)c2cc1Oc1ccc(cc1)C[C@H]1c3cc(c(OC)cc3CCN1C)Oc1c(OC)c(OC)cc3c1[C@H](C2)N(C)CC3` [Compound 15, 14-N-(L-leucine)-tetrandrine], the IC50 in experiment [1] amounted to 3.66 ± 0.82 µM; in experiment [2], 5.92 ± 0.73 µM; in experiment [3], 3.09 ± 0.36 µM; in experiment [4], 12.08 ± 0.04 µM; in experiment [5], 4.55 ± 0.27 µM; in experiment [6], 2.71 ± 0.22 µM. Besides, in experiment [7], the IC50 amounted to 6.74 ± 0.16 µM.

Regarding `COc1cc(NC(=O)[C@@H](NC(=O)OC(C)(C)C)[C@@H](C)O)c2cc1Oc1ccc(cc1)C[C@H]1c3cc(c(OC)cc3CCN1C)Oc1c(OC)c(OC)cc3c1[C@H](C2)N(C)CC3` [Compound 9], the IC50 in experiment [1] was 6.97 ± 0.34 µM; in experiment [2] it was 12.3 ± 0.61 µM; in experiment [3] it was 4.91 ± 1.05 µM; in experiment [4], over 20 µM; in experiment [5], 13.1 ± 0.37 µM; in experiment [6] it was 8.57 ± 0.57 µM. In experiment [7], this compound yielded an IC50 of 11.3 ± 0.55 µM.
